Assay results: PubChem BioAssay AID1919016 (Molecular Pharmacology Branch, DTP, NCI, 2023)

Test system: NCI-H196 complex spheroid growth, percent test/control
Test: Anticancer human tumor NCI-H196 cell line growth inhibition [AhR];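 note: seven days of drug exposure starting three days after plating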;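 for viability, T/C: 100% = DMSO vehicle control wells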
Conditions: for IC50: curve of first compound; for viability, T/C: stronger effect = lower value
Source text: Multicellular complex tumor spheroid response to aryl hydrocarbon receptor antagonists in combination with a variety of drugs and investigational agents in selected tumor cell lines
The current study was undertaken to assess response to aryl hydrocarbon receptor antagonists in combination with standard-of-care drugs and investigational agents in solid tumor complex spheroid models. Complex spheroids include a stromal component modeled by human endothelial cells (HUVEC) and fibroblasts modeled by human mesenchymal stem cells (MSCs). The concentration ranges selected for each drug and investigational agent were based upon clinically achievable concentrations if the clinical Cmax of the agent was known.
Compounds. The drugs and investigational agents: BAY 2416964 (NSC825713), GNF351 (NSC835774), CH-223191 (NSC835775), CPI-455 (NSC825282), aza-TdCyd (NSC777586), decitabine (NSC127716), belinostat (NSC758774), entinostat (NSC756642), pevonedistat (NSC761192), tazemetostat (NSC777109), talazoparib (NSC765396), olaparib (NSC753686), selinexor (NSC780203), nedisertib (M3814, NSC802822), bortezomib (NSC756655), venetoclax (NSC766270), doxorubicin (NSC123127), elimusertib (BAY189344, NSC800525), ceralasertib (AZD6738, NSC777638), TAK-243 (NSC785004), alisertib (NSC759677), etoposide (NSC141540), topotecan (NSC609699), eribulin (NSC707389), gemcitabine (NSC613327), carboplatin (NSC241240), cisplatin (NSC119875), and SN-38 (NSC673596) were obtained from the National Cancer Institute (NCI) Developmental Therapeutics Program Chemical Repository (32). The FDA-approved anticancer drug set is available from the Developmental Therapeutics Program at https://dtp.cancer.gov/organization/dscb/obtaining/available plates.htm. […] The stock solutions were prepared in dimethyl sulfoxide (DMSO, Sigma-Aldrich, St. Louis, MO, cat. D2650), except for the platinum compounds which were prepared in saline (Quality Biological, Gaithersburg, MD, cat. 114-055-101), at 800-fold the tested concentration and stored at -70 degrees C prior to their use. All drugs and investigational agents were tested over a range starting from a high concentration at or near the clinical Cmax and decreasing in half-log increments. If the clinical Cmax for an agent had not been determined, the highest concentration tested was 10 microM (Table 1).
Cell Culture. All cells were maintained in an incubator at 37 degrees C and 5% CO2 with 95% humidity. The PDC lines were cultured according to standard operating procedures established by the NCI PDMR (https://pdmr.cancer.gov). Briefly, all PDCs were thawed and cultured in Matrigel-coated flasks prepared with a working solution of 1X Ham's F-12 nutrient mix, without supplementation (Invitrogen, Waltham, MA, cat. 11765054), 100 U/mL penicillin-streptomycin (Invitrogen, cat. 15140122), and 2.5% Matrigel (Corning Inc., Corning, NY, cat. 354248) for the first three passages. All PDCs were cultured in complete DMEM/F-12 media containing advanced DMEM/F-12 (Invitrogen, cat. 12634028), 4.9% defined fetal bovine serum, heat inactivated (HyClone Laboratories Inc., Logan, UT, cat. SH30070.03HI), 389 ng/mL hydrocortisone (Sigma-Aldrich, cat. H4001), 9.7 ng/mL human EGF recombinant protein (Invitrogen, cat. PHG0313), 23.4 microg/mL adenine (Sigma-Aldrich, cat. A2786), 97.3 U/mL penicillin-streptomycin (Invitrogen, cat. 15140122), 1.9 mM L-glutamine (Invitrogen, cat. 25030081), and 9.7 microM Y-27632 dihydrochloride (Tocris Bioscience, Bristol, United Kingdom, cat. 1254). The PDCs were cultured in complete DMEM/F12 media without 10 microM Y-27632 dihydrochloride for at least two passages prior to the screen. The established cell lines NCI-H1341 and […] were cultured in DMEM/F-12, HEPES (Invitrogen, cat. 11330032), 5% defined fetal bovine serum (HyClone Laboratories Inc., cat. SH30070.03), ITS premix universal culture supplement [insulin (5 microg/mL), transferrin (5 microg/mL), and selenious acid (5 ng/mL)] […]

[1] = second compound 0.1 µM, first compound 0.0316 µM
[2] = second compound 0.1 µM, first compound 0.1 µM
[3] = second compound 0.316 µM, first compound 0.0316 µM
[4] = second compound 0.316 µM, first compound 0.1 µM
[5] = second compound 1 µM, first compound 0.0316 µM
[6] = second compound 1 µM, first compound 0.1 µM
[7] = second compound 3.16 µM, first compound 0.0316 µM
[8] = second compound 3.16 µM, first compound 0.1 µM
[9] = second compound 10 µM, first compound 0.0316 µM
[10] = second compound 10 µM, first compound 0.1 µM

## CC[C@@]1(O)C(=O)OCc2c1cc1n(c2=O)Cc2cc3c(CN(C)C)c(O)ccc3nc2-1 + CC(CO)NC(=O)c1cc(-c2ccc(Cl)cc2)nn(-c2cnn(C)c2)c1=O
Second compound 0.1 µM
  IC50: > 0.1 µM
Second compound 0.316 µM
  IC50: > 0.1 µM
Second compound 1 µM
  IC50: > 0.1 µM
Second compound 3.16 µM
  IC50: > 0.1 µM
Second compound 10 µM
  IC50: > 0.1 µM
Second compound 0.1 µM, first compound 0.000316 µM
  viability, T/C: 104%
Second compound 0.1 µM, first compound 0.001 µM
  viability, T/C: 101%
Second compound 0.1 µM, first compound 0.00316 µM
  viability, T/C: 97.8%
Second compound 0.1 µM, first compound 0.01 µM
  viability, T/C: 97%
[1]
  viability, T/C: 111%
[2]
  viability, T/C: 119%
Second compound 0.316 µM, first compound 0.000316 µM
  viability, T/C: 111%
Second compound 0.316 µM, first compound 0.001 µM
  viability, T/C: 110%
Second compound 0.316 µM, first compound 0.00316 µM
  viability, T/C: 105%
Second compound 0.316 µM, first compound 0.01 µM
  viability, T/C: 105%
[3]
  viability, T/C: 111%
[4]
  viability, T/C: 129%
Second compound 1 µM, first compound 0.000316 µM
  viability, T/C: 98.6%
Second compound 1 µM, first compound 0.001 µM
  viability, T/C: 108%
Second compound 1 µM, first compound 0.00316 µM
  viability, T/C: 116%
Second compound 1 µM, first compound 0.01 µM
  viability, T/C: 100%
[5]
  viability, T/C: 113%
[6]
  viability, T/C: 119%
Second compound 3.16 µM, first compound 0.000316 µM
  viability, T/C: 110%
Second compound 3.16 µM, first compound 0.001 µM
  viability, T/C: 111%
Second compound 3.16 µM, first compound 0.00316 µM
  viability, T/C: 114%
Second compound 3.16 µM, first compound 0.01 µM
  viability, T/C: 96.8%
[7]
  viability, T/C: 120%
[8]
  viability, T/C: 118%
Second compound 10 µM, first compound 0.000316 µM
  viability, T/C: 111%
Second compound 10 µM, first compound 0.001 µM
  viability, T/C: 112%
Second compound 10 µM, first compound 0.00316 µM
  viability, T/C: 116%
Second compound 10 µM, first compound 0.01 µM
  viability, T/C: 103%
[9]
  viability, T/C: 113%
[10]
  viability, T/C: 124%

## Nc1ccn(C2OC(CO)C(O)C2(F)F)c(=O)n1 (stereo not given) + CC(CO)NC(=O)c1cc(-c2ccc(Cl)cc2)nn(-c2cnn(C)c2)c1=O
Second compound 0.1 µM
  IC50: > 10 µM
Second compound 0.316 µM
  IC50: > 10 µM
Second compound 1 µM
  IC50: > 10 µM
Second compound 3.16 µM
  IC50: > 10 µM
Second compound 10 µM
  IC50: > 10 µM
[1]
  viability, T/C: 94%
[2]
  viability, T/C: 93.3%
Second compound 0.1 µM, first compound 0.316 µM
  viability, T/C: 67.5%
Second compound 0.1 µM, first compound 1 µM
  viability, T/C: 60.2%
Second compound 0.1 µM, first compound 3.16 µM
  viability, T/C: 65.2%
Second compound 0.1 µM, first compound 10 µM
  viability, T/C: 63.1%
[3]
  viability, T/C: 101%
[4]
  viability, T/C: 98%
Second compound 0.316 µM, first compound 0.316 µM
  viability, T/C: 67.9%
Second compound 0.316 µM, first compound 1 µM
  viability, T/C: 65.1%
Second compound 0.316 µM, first compound 3.16 µM
  viability, T/C: 62%
Second compound 0.316 µM, first compound 10 µM
  viability, T/C: 63.7%
[5]
  viability, T/C: 92.9%
[6]
  viability, T/C: 86.6%
Second compound 1 µM, first compound 0.316 µM
  viability, T/C: 75.1%
Second compound 1 µM, first compound 1 µM
  viability, T/C: 60.7%
Second compound 1 µM, first compound 3.16 µM
  viability, T/C: 61.1%
Second compound 1 µM, first compound 10 µM
  viability, T/C: 69.8%
[7]
  viability, T/C: 98.3%
[8]
  viability, T/C: 96.4%
Second compound 3.16 µM, first compound 0.316 µM
  viability, T/C: 69.9%
Second compound 3.16 µM, first compound 1 µM
  viability, T/C: 61.3%
Second compound 3.16 µM, first compound 3.16 µM
  viability, T/C: 59.7%
Second compound 3.16 µM, first compound 10 µM
  viability, T/C: 70.3%
[9]
  viability, T/C: 105%
[10]
  viability, T/C: 101%
Second compound 10 µM, first compound 0.316 µM
  viability, T/C: 78%
Second compound 10 µM, first compound 1 µM
  viability, T/C: 73.1%
Second compound 10 µM, first compound 3.16 µM
  viability, T/C: 66.8%
Second compound 10 µM, first compound 10 µM
  viability, T/C: 73.2%
